# Results as given in a melting point compilation (Tetko et al.; mined from patent text by program, amines drawn as free bases though some values may be those of a salt).
row,SMILES,melting point [°C]
1,Cc1noc2c1C(=O)C(CCCN1CCC(C(=O)c3ccc(F)cc3)CC1)CC2 (configuration not stated),81 to 83
2,COc1ccc(C2=NOC3(C2)C(=O)CN(C)C3=O)cc1OC1CCCC1 (configuration not stated),169 to 170
3,C1CN(c2nc(NC3CC3)nc(C3CC3)n2)CCS1,133 to 134
4,N#Cc1ccc(Nc2ccc(C(F)(F)F)cc2Nc2ccc(C#N)cc2C(=O)O)c(C(=O)O)c1,235 to 240
5,CCc1ccc(Nc2nc3cc(NC(=O)c4cccc(CCl)c4)ccc3o2)cc1,194 to 195
6,COc1c(C(C)C)cc(S(N)(=O)=O)c(C)c1C(=O)NCC1CCCN1CC1CC1 (configuration not stated),125
7,O=c1cc(-c2ccccc2)c2c([nH]1)CCCC2,285 to 288
8,CCc1cc(OC)c(-c2csc(NC(=O)c3cc4ccccc4[nH]3)n2)c(OC)c1,> 260
9,CN(C)S(=O)(=O)CCc1ccccc1S(N)(=O)=O,134 to 136
10,O=C(OCc1cc2c3ccccc3[nH]c(=O)n2n1)c1ccccc1,262 to 265
11,Cc1cc(CCCOc2ccc(-c3noc(C(F)(F)F)n3)cc2C)on1,69 to 70
12,CN(CCCCCC(=O)O)c1ccc(Br)cc1C=O,95 to 96
13,CSc1nnc(-c2ccc3ncn(-c4ccc(OC(F)F)cc4)c3c2)o1,202 to 203
14,CON(C)C(=O)[C@H]1CC[C@H](NC(=O)OC(C)(C)C)CC1,130 to 140
15,O=c1[nH]c2cc(Cl)c(Cl)cc2c(O)c1-c1ccccc1,347 to 349
16,O=C(c1c[nH]c2ccc(Br)cc12)C(F)(F)F,254
17,COC(OC)c1cnc(-c2ccccc2)[nH]1,158 to 160
18,Fc1ccccc1Cn1nc(-c2nc(C(F)(F)F)cc(C(F)(F)F)n2)c2cccnc21,109
19,Cc1cc(CCCOc2ccc(-c3noc(C(F)(F)F)n3)cc2)on1,68 to 69
20,CCc1c(CC(=O)NCCCCCCNC(=O)Cc2ccc(OC)c(OC)c2CC)ccc(OC)c1OC,169 to 172
21,COc1cccc(C(NC(=O)Cc2c(Cl)cncc2Cl)C2CCCC2)c1 (configuration not stated),105 to 106
22,Cc1oc(-c2ccccc2)nc1COc1ccc2cc(/C=C/C=O)oc2c1,132 to 133
23,CC1(C)CC(C)(O)C2C3CCCCC3C2(C)C1 (configuration not stated),76.6 to 77.4
24,CCOC(=O)c1ccc2c(c1)S(=O)c1cc([N+](=O)[O-])ccc1-2 (configuration not stated),245 to 250

row,SMILES,melting point [°C]
1,Cn1c(=O)ccc2cnc(NCc3ccccc3)nc21,160 to 162
2,Cc1cccc2c1C(=O)N(C1(C(=O)Nc3ccc(Cl)cc3)CCCCC1)C2=O,208 to 209
3,CCOCc1nc2c(N)nc3cccnc3c2n1CCCC(C)N(OC)C(=O)NC(C)C (configuration not stated),174 to 175
4,COc1cc(C=CC(=O)c2ccc(N(C)C)cc2)cc(OC)c1,155 to 156
5,COc1cc(C)cc(OC)c1-c1ccccc1C(=O)O,187
6,CC(=O)Nc1c(C)c2c(c(C)c1[N+](=O)[O-])OC(C)(C)C2,203 to 204
7,NC(=O)c1c(C(F)(F)F)ccc(Cl)c1Cl,118 to 120
8,Cc1ccc(Cc2cnc(NCCCN(Cc3ccc(Cl)cc3)c3ccccn3)[nH]c2=O)cn1,88 to 92
9,COC(=O)c1c[nH]c(-c2ccc(OC[C@@H](O)CNC(C)(C)C)cc2)n1,168 to 172
10,Cc1c(OCCCCSCCn2c([N+](=O)[O-])cnc2C)ccnc1CNc1cnc2ccccc2c1,154 to 158
11,Cc1ccn(-c2nc(Cl)c([N+](=O)[O-])s2)n1,153
12,C=C=CC12CCC(=O)C=C1C=CC1C3CCC(=O)C3(C)CCC12 (configuration not stated),152 to 154
13,CS(=O)(=O)Nc1cccc([N+](=O)[O-])c1,237
14,CC(C)(c1ccccc1)n1nnc(-c2ccccc2-c2ccc(C3OCCCO3)cc2)n1,102 to 106
15,O=c1[nH]c2cc(Cl)ccc2c(=O)c2c(C(F)(F)F)n[nH]c12,334 to 336
16,Cc1cc(O)c(C(C)(C)C)cc1N,191 to 192
17,CC(=O)Oc1cccc(-c2nc(=O)n(C(C)C)c3cc(C)ccc23)c1,148 to 150
18,COCOc1cc(CO)ccc1OCc1nc(-c2ccco2)oc1C,92 to 93
19,O=C(Nc1ccccc1Nc1ccccc1)N[C@@H](Cc1ccc(NC(=O)c2c(Cl)cccc2Cl)cc1)C(=O)O,174
20,CCCCc1nn(-c2cc([N+](=O)[O-])ccc2Br)c(=O)[nH]1,125 to 127
21,Nc1cc(-c2c(-c3ccc(Cl)cc3)nc3cccnn23)ccn1,252 to 253
22,O=C1c2ccccc2N(N2CCOCC2)C2=NCCN12,250 to 251
23,COC(=O)c1sc2cc(CCl)ccc2c1C,128 to 129
24,COc1ncc(C(F)(F)F)cc1-c1cccn2nc(Nc3ccc(C4CCN(C(=O)OC(C)(C)C)CC4)cc3)nc12,142 to 144

row,SMILES,melting point [°C]
1,CCOC(=O)c1c(C)c(C#N)c(N)c(C#N)c1C,206
2,CN1CCN(CNC(=O)c2cccc(Nc3nccc(-c4cccnc4)n3)c2)CC1,220 to 224
3,CC1(C)COc2cc(Cl)c(F)cc2C(O)(c2ccccn2)C1 (configuration not stated),100
4,CCOC(=O)c1[nH]c2cc(Cl)cc(Cl)c2c1NCCCC(=O)c1ccccc1,203 to 205
5,Cc1ccccc1-c1c(NC(=O)Nc2c(C(C)C)cccc2C(C)C)oc2ccc(Cl)cc12,240
6,C[C@H]1[C@H](Oc2cccc(C(F)(F)F)c2)CN1C(N)=O (relative stereo),107 to 108
7,Cc1cc(Oc2cccc(C(F)(F)F)c2)nn1C(=O)NCC1CCCO1 (configuration not stated),101 to 102
8,CC(C)(C)c1ccc(C(=O)n2c3cc(O)c(O)cc3c3c(Br)cc(O)c(O)c32)cc1,> 280
9,Oc1c(Cl)cc2c(-c3ccccc3F)noc2c1Cl,194 to 196
10,CCOC(=O)c1ccc2cc(-c3cccc4ccccc34)ccn2c1=O,245 to 247
11,C#CCOc1c(-c2ccccc2)c(=O)[nH]c2cc(Cl)ccc12,183 to 185
12,CC(C)(C)OC(=O)NCCNC(=O)c1cccc(Cl)n1,114 to 115
13,Cn1cc(C2=C(c3c(S(C)=O)n(C)c4ccccc34)C(=O)NC2=O)c2ccccc21 (configuration not stated),300
14,CCc1nc2ccccc2c(=O)n1-c1ccc(F)cc1,178
15,COC(=O)c1cc2cc([N+](=O)[O-])ccc2o1,168
16,CCOC(=O)NCCc1cccc(-c2ccnc3c(C#N)cnn23)c1,133 to 135
17,COC(=O)c1ccc(CCCCc2c(N)nc(N)nc2O)cc1,203 to 205
18,Cc1ccnc2c1C(=O)CC(c1cc(Cl)ccc1Cl)C2 (configuration not stated),116 to 117
19,CC(C(=O)O)c1ccc(-n2cccn2)c(Cl)c1 (configuration not stated),83 to 85
20,CC(=O)OC1OCC[C@@H]1NC(=O)[C@H](Cc1ccccc1)NC(=O)OC(C)(C)C (some centres not stated),156 to 157
21,CCCN1C(=O)N2C(=NCC2c2ccccc2)c2[nH]cnc21 (configuration not stated),258 to 264
22,CCCCCC(=O)C=Cc1ccc(CCCCCCCCCC(=O)OC)s1,45 to 47
23,C=CCc1cc(C(=O)OCC)ccc1OCC1(O)CN2CCC1CC2 (configuration not stated),143 to 145
24,Cc1cc(C)c2c(c1)C(NC(=O)c1conc1C)CCC2 (configuration not stated),57 to 58
